Results: ChEMBL document CHEMBL1158371, “Design, synthesis, and evaluation of biphenyl-4-yl-acrylohydroxamic acid derivatives as histone deacetylase (HDAC) inhibitors” (Eur J Med Chem, 2009)
pIC50: −log10 of the molar value. Calls of active or inactive are those of the source. The calls are words filed in the database; no cut-off is given here.

Assays:
[1] = test system: IGROV-1; test: Cell cycle arrest in human IGROV1 cells assessed as accumulation at sub-G1 phase at IC80 after 24 hrs using propidium-iodide staining by flow-cytometry; type: functional, cell-based
[2] = test system: IGROV-1; test: Antiproliferative activity against human IGROV1 cells after 72 hrs; type: functional, cell-based; details: IGROV-1, 72 h
[3] = target: Histone deacetylase 2 (Homo sapiens, UniProt Q92769); test: Inhibition of HDAC2 in human HeLa cells; type: cell-based
Chain of Histone deacetylase 2 (Q92769 whole entry): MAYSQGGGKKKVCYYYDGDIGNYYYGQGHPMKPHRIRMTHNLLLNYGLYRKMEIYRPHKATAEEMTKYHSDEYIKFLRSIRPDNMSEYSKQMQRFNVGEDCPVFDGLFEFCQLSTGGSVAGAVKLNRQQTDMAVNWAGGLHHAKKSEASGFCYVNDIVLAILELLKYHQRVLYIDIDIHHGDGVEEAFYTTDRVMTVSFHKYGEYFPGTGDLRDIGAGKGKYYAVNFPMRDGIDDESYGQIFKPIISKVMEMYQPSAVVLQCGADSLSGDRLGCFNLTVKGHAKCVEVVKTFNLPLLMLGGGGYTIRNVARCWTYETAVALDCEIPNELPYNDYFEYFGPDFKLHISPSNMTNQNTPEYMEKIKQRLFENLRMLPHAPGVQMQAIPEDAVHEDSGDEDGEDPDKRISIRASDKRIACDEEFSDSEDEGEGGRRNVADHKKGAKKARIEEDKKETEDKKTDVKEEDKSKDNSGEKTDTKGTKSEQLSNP

[4] = test system: NB-4; test: Antiproliferative activity against human NB4 cells after 72 hrs; type: functional, cell-based; details: NB-4, 72 h
[5] = test system: IGROV-1; test: Induction of apoptosis in human IGROV1 cells at IC80 after 72 hrs by TUNEL assay; type: functional
[6] = test system: HCT-116; test: Antiproliferative activity against human HCT116 cells after 72 hrs; type: functional, cell-based; details: HCT-116, 72 h
[7] = test system: IGROV-1; test: Cell cycle arrest in cisplatin-resistant human IGROV1 cells assessed as partial accumulation at S phase at IC80 using propidium-iodide staining by flow-cytometry; type: functional, cell-based
[8] = test system: IGROV-1; test: Antiproliferative activity against cisplatin-resistant human IGROV1 cells after 72 hrs; type: functional, cell-based; details: IGROV-1, 72 h
[9] = test system: IGROV-1; test: Cell cycle arrest in cisplatin-resistant human IGROV1 cells assessed as partial accumulation at G2/M phase at IC80 using propidium-iodide staining by flow-cytometry; type: functional, cell-based
[10] = test system: IGROV-1; test: Antiproliferative activity against human IGROV1 cells after 72 hrs by cell counting; details: IGROV-1, 72 h
[11] = test system: NCI-H460; test: Antiproliferative activity against human H460 cells after 72 hrs; type: functional, cell-based; details: NCI-H460, 72 h
[12] = test system: Mus musculus; test: Toxicity in athymic nude Swiss mouse bearing human IGROV1 cells assessed as body weight loss at 20 mg/kg, po QD administered 5 days a week for 4 weeks; type: organism-based, IGROV-1; parameters: dose 20 mg/kg, route oral; details: in vivo
[13] = test system: Mus musculus; test: Toxicity in athymic nude Swiss mouse bearing human HCT116 cells assessed as body weight loss at 40 mg/kg, po QD administered 5 days a week for 4 weeks; type: organism-based, HCT-116; parameters: dose 40 mg/kg, route oral; details: in vivo
[14] = test system: IGROV-1; test: Antitumor activity against human IGROV1 cells athymic nude Swiss mouse assessed as tumor volume inhibition at 40 mg/kg, po QD administered 5 days a week for 4 weeks; type: functional
[15] = test system: HCT-116; test: Antitumor activity against human HCT116 cells athymic nude Swiss mouse assessed as tumor volume inhibition at 40 mg/kg, po QD administered 5 days a week for 4 weeks; type: functional
[16] = test system: IGROV-1; test: Antitumor activity against human IGROV1 cells athymic nude Swiss mouse assessed as tumor volume inhibition at 20 mg/kg, po QD administered 5 days a week for 4 weeks; type: functional
[17] = test system: Mus musculus; test: Toxicity in athymic nude Swiss mouse bearing human IGROV1 cells assessed as body weight loss at 40 mg/kg, po QD administered 5 days a week for 4 weeks; type: organism-based, IGROV-1; parameters: dose 40 mg/kg, route oral; details: in vivo
[18] = test system: IGROV-1; test: Cell cycle arrest in human IGROV1 cells assessed as accumulation at sub-G1 phase at IC90 after 24 hrs using propidium-iodide staining by flow-cytometry; type: functional, cell-based
[19] = test system: Mus musculus; test: Toxicity in athymic nude Swiss mouse bearing human HCT116 cells assessed as body weight loss at 100 mg/kg, po QD administered 5 days a week for 4 weeks; type: organism-based, HCT-116; parameters: dose 100 mg/kg, route oral; details: in vivo
[20] = test system: IGROV-1; test: Induction of apoptosis in human IGROV1 cells at IC90 after 72 hrs by TUNEL assay; type: functional
[21] = test system: IGROV-1; test: Cell cycle arrest in cisplatin-resistant human IGROV1 cells assessed as partial accumulation at S phase at IC90 using propidium-iodide staining by flow-cytometry; type: functional, cell-based
[22] = test system: IGROV-1; test: Cell cycle arrest in cisplatin-resistant human IGROV1 cells assessed as partial accumulation at G2/M phase at IC90 using propidium-iodide staining by flow-cytometry; type: functional, cell-based
[23] = test system: Mus musculus; test: Toxicity in athymic nude Swiss mouse bearing human HCT116 cells assessed as body weight loss at 20 mg/kg, ip QD administered 5 days a week for 4 weeks; type: organism-based, HCT-116; parameters: dose 20 mg/kg, route intraperitoneal; details: in vivo
[24] = test system: Mus musculus; test: Toxicity in athymic nude Swiss mouse bearing human HCT116 cells assessed as body weight loss at 20 mg/kg, po QD administered 5 days a week for 4 weeks; type: organism-based, HCT-116; parameters: dose 20 mg/kg, route oral; details: in vivo
[25] = test system: HCT-116; test: Antitumor activity against human HCT116 cells athymic nude Swiss mouse assessed as tumor volume inhibition at 20 mg/kg, po QD administered 5 days a week for 4 weeks; type: functional
[26] = test system: NCI-H460; test: Antitumor activity against human H460 cells athymic nude Swiss mouse assessed as tumor volume inhibition at 100 mg/kg, ip QD administered 5 days a week for 2 weeks; type: functional; details: route intraperitoneal
[27] = test system: Mus musculus; test: Toxicity in athymic nude Swiss mouse bearing human H460 cells assessed as body weight loss at 100 mg/kg, ip QD administered 5 days a week for 2 weeks; type: organism-based; parameters: dose 100 mg/kg, route intraperitoneal; details: in vivo
[28] = test system: HCT-116; test: Antitumor activity against human HCT116 cells athymic nude Swiss mouse assessed as tumor volume inhibition at 20 mg/kg, ip QD administered 5 days a week for 4 weeks; type: functional; details: HCT-116, ip, route intraperitoneal
[29] = test system: NCI-H460; test: animal or person; type: functional, Homo sapiens; details: Mus musculus, route oral
Description: Antitumor activity against human H460 cells athymic nude Swiss mouse assessed as tumor volume inhibition at 100 mg/kg, po QD administered 5 days a week for 2 weeks

Row | pIC50 [3] | pIC50 [6] | pIC50 [11] | Structure (SMILES) | Activity [1] | pIC50 [2] | pIC50 [4] | Activity [5] | Activity [7] | pIC50 [8] | Activity [9] | IC80 [10] | further results
1 | 5.73 | 6.29 |  | O=C(/C=C/c1ccc(-c2ccc(Cl)cc2)cc1)NO | Active | 6.21 | 6.12 | 77% | Active | 5.87 | Active | 2 µM | 
2 |  | 5.41 |  | O=C(/C=C/Oc1ccc(-c2ccccc2)cc1)NO |  | 5.27 |  |  |  | 5.23 |  |  | 
3 | 5.92 |  | 5.48 | N#Cc1ccc(-c2ccc(/C=C/C=C/C(=O)NO)cc2)cc1 |  | 5.98 |  |  |  | 5.51 |  |  | 
4 |  | 6.48 | 5.22 | O=C(/C=C/c1ccc(-c2ccc(O)cc2)cc1)NO |  | 5.12 | 5.64 | 40% |  | 5.19 |  | 20 µM | Activity [12]: 2%; Activity [13]: 8%; inhibition in vivo at 40 mg/kg [14]: 49%; inhibition in vivo at 40 mg/kg [15]: 65%; inhibition in vivo at 20 mg/kg [16]: 44%; Activity [17]: 6%
5 | 6.66 | 6.10 | 5.42 | O=C(/C=C/c1ccc(-c2ccc(CO)cc2)cc1)NO | Active | 5.10 | 5.74 | 90% | Active | 5.26 | Active | 15 µM | 
6 | 6.49 | 5.79 | 5.25 | O=C(/C=C/c1cccc(-c2ccc(O)cc2)c1)NO |  | < 5.00 | 5.55 |  |  | < 5.00 |  |  | 
7 | < 5.30 | 6.01 | 5.72 | O=C(/C=C/C=C/c1ccc(-c2ccccc2)cc1)NO | Active | 5.85 | 6.18 | 89% | Active | 5.62 | Active | 3 µM | 
8 | 5.92 |  | 4.85 | O=C(/C=C/c1ccc(-c2ccc3[nH]ccc3c2)cc1)NO |  | 4.66 | 5.19 |  |  | 4.53 |  |  | 
9 | 6.14 | 5.57 | 5.33 | O=C(CCCCc1ccc(-c2ccccc2)cc1)NO | Active | 5.10 | 6.07 | 65% | Active | 5.04 | Active | 12 µM | 
10 | < 5.30 |  |  | O=C(/C=C/c1ccc(-c2ccncc2)cc1)NO |  |  | 5.48 |  |  |  |  |  | 
11 | 6.34 | 5.84 | 5.51 | O=C(/C=C/c1ccc(-c2ccc(O)c(Cl)c2)cc1)NO | Active | 5.39 | 6.24 |  | Active | 5.41 | Active |  | 
12 |  | 6.51 |  | O=C(CCCCCCC(=O)Nc1ccccc1)NO [VORINOSTAT] | Active | 5.66 |  | 15% | Active | 5.66 | Active |  | Activity [18]: Active; Activity [19]: 4%; Activity [20]: 45%; Activity [21]: Active; Activity [22]: Active
13 | < 5.30 | 6.15 |  | CN(C)c1ccc(-c2ccc(/C=C/C(=O)NO)cc2)cc1 | Active | 5.96 | 6.07 | 89% | Active | 5.46 | Active | 3 µM | 
14 | < 5.30 |  | < 4.70 | COc1ccc(-c2ccc(/C=C/C=C/C(=O)NO)cc2)cc1 |  | 6.24 |  | 90% |  | 5.70 |  | 10 µM | 
15 | 6.09 | 5.80 | 5.27 | O=C(/C=C/c1ccc(-c2ccccc2)cc1)NO |  | 5.46 | 6.05 |  |  | 5.40 |  |  | 
16 |  |  |  | O=Cc1ccc(-c2ccc(/C=C/C(=O)NO)cc2)cc1 |  | 4.92 |  |  |  | 4.69 |  |  | 
17 | 6.48 |  | 5.24 | N#Cc1ccc(-c2ccc(/C=C/C(=O)NO)cc2)cc1 | Active | 5.57 |  | 90% | Active | 5.49 | Active | 10 µM | Activity [12]: 0%; inhibition in vivo at 20 mg/kg [16]: 37%
18 |  | 5.37 | 5.02 | O=C(CCC1CCC(c2ccc(O)cc2)CC1)NO (configuration not stated) |  | 4.50 | 5.16 |  |  | 4.62 |  |  | 
19 | 5.94 | 6.66 | 5.43 | COc1ccc(-c2ccc(/C=C/C(=O)NO)cc2)cc1 | Active | 6.12 |  | 52% | Active | 5.64 | Active | 3 µM | Activity [12]: 0%; Activity [23]: 2%; Activity [24]: 1%; inhibition in vivo at 20 mg/kg [25]: 35%; inhibition in vivo at 100 mg/kg [26]: 39%; Activity [27]: 4%; inhibition in vivo at 20 mg/kg [16]: 71%; inhibition in vivo at 20 mg/kg [28]: 50%; inhibition in vivo at 100 mg/kg [29]: 57%
20 | 5.77 | 6.59 | 4.82 | O=C(CCc1ccc(-c2ccc(O)cc2)cc1)NO | Active | 6.10 | 5.41 | 45% | Active | 6.02 | Active | 10 µM | 

Row | Structure (SMILES) | pIC50 [3] | pIC50 [6] | pIC50 [11] | Activity [1] | pIC50 [2] | pIC50 [4] | Activity [5] | Activity [7] | pIC50 [8] | Activity [9] | IC80 [10] | further results
21 | O=C(/C=C/c1ccc(-c2cccs2)cc1)NO | 6.35 |  | 5.55 | Active | 5.55 |  | 90% | Active | 5.49 | Active | 7 µM | 
22 | O=C(/C=C/C1CCC(c2ccc(O)cc2)CC1)NO (configuration not stated) | 6.51 | 6.43 | 5.66 |  | 5.60 | 6.05 |  |  | 5.59 |  |  | 
